In the CheMixHub viscosity set:
Values joined by “and” are separate entries in the source; they are usually repeats but may differ in a detail not shown here. Equal entries are not always repeated.

Assay: xn = mol fraction of the nth substance listed

O=c1ccn([C@@H]2O[C@H](CO)C(O)C2O)c(=O)[nH]1 (stereo partly drawn) + O
viscosity [mPa·s], 101.3 kPa
Details	293.15 K	298.15 K	303.15 K	308.15 K	313.15 K	318.15 K
x1 = 0.0001846	–	0.895	–	0.723	–	0.599
x1 = 0.0002557	–	0.897	–	0.724	–	0.601
x1 = 0.00027	1.006	0.895	0.807	0.738	0.623	–
x1 = 0.000318	–	0.898	–	0.726	–	0.602
x1 = 0.000355	1.008	0.897	0.809	0.74	0.625	–
x1 = 0.0003955	–	0.9	–	0.727	–	0.603
x1 = 0.000448	1.01	0.899	0.811	0.742	0.627	–
x1 = 0.0005076	–	0.902	–	0.729	–	0.605
x1 = 0.000533	1.012	0.901	0.813	0.744	0.628	–
x1 = 0.0005591	–	0.904	–	0.731	–	0.606
x1 = 0.00063	1.014	0.903	0.815	0.746	0.63	–
x1 = 0.00072	1.016	0.905	0.817	0.748	0.632	–

OC[C@@H](O)[C@@H](O)[C@H](O)[C@H](O)CO + O
viscosity, 101 kPa
Details	298.15 K	303.15 K	308.15 K	313.15 K	318.15 K	323.15 K
x1 = 0.002	–	0.837 mPa·s	0.748 mPa·s	0.674 mPa·s	–	0.565 mPa·s
x1 = 0.003588	0.9818 mPa·s	–	–	–	–	–
x1 = 0.004	–	0.872 mPa·s	0.777 mPa·s	0.705 mPa·s	0.645 mPa·s	0.587 mPa·s
x1 = 0.005	–	0.909 mPa·s	0.814 mPa·s	0.732 mPa·s	0.671 mPa·s	0.61 mPa·s
x1 = 0.007	–	0.941 mPa·s	0.845 mPa·s	0.757 mPa·s	0.692 mPa·s	0.626 mPa·s
x1 = 0.007158	1.085 mPa·s	–	–	–	–	–
x1 = 0.009	–	0.983 mPa·s	0.883 mPa·s	0.788 mPa·s	0.722 mPa·s	0.653 mPa·s
x1 = 0.01	–	1.069 mPa·s	0.914 mPa·s and 0.949 mPa·s and 0.992 mPa·s	0.821 mPa·s and 0.886 mPa·s	0.75 mPa·s and 0.777 mPa·s and 0.81 mPa·s	0.673 mPa·s and 0.697 mPa·s and 0.731 mPa·s
x1 = 0.01069	1.191 mPa·s	–	–	–	–	–
x1 = 0.01422	1.311 mPa·s	–	–	–	–	–
x1 = 0.01769	1.442 mPa·s	–	–	–	–	–
x1 = 0.018	–	1.217 mPa·s	1.088 mPa·s	0.966 mPa·s	0.876 mPa·s	0.786 mPa·s
x1 = 0.02	–	1.17 mPa·s	1.038 mPa·s	0.928 mPa·s	0.84 mPa·s	0.756 mPa·s

[Na+].[Na+].[O]=[Cr](=[O])([O-])[O-] + O
viscosity, 101 kPa
Details	x1 = 0.012	x1 = 0.02109	x1 = 0.027	x1 = 0.045	x1 = 0.069	x1 = 0.083
298.15 K	1.16 mPa·s	1.38 mPa·s	1.68 mPa·s	2.88 mPa·s	6.14 mPa·s	10.03 mPa·s
312.95 K	0.85 mPa·s and 0.8523 mPa·s	–	1.23 mPa·s	1.98 mPa·s	3.9 mPa·s	5.94 mPa·s
